This is an account of results in patent publication US10961215B2, “N-aryl and N-heteroaryl piperidine derivatives as liver X receptor beta agonists, compositions, and their use” (Merck Sharp & Dohme Corp., priority 2016, dated 2021).

The target in experiment [1] is T1, GST tagged LXRbeta LBD (ligand binding domain) (Homo sapiens, UniProt P55055).
T1 construct: purchased Invitrogen pv4658.pps
T1 sequence (P55055 222-460 limits assumed): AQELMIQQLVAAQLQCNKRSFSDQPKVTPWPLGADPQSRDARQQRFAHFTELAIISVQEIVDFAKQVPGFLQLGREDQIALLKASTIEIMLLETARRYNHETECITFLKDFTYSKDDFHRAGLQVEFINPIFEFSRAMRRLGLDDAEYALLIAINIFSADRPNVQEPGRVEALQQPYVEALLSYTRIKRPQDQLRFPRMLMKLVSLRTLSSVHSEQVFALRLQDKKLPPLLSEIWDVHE
Kind of experiment: LanthaScreen TR-FRET Liver X Receptor Coactivator Assay, LXR beta-LBD (co-activator recruitment; IP and % Emax relative to T0901317). It is filed as biochemical. Conditions: for EC50: Inflection Point of co-activator recruitment, LXR beta-LBD, TR-FRET; for Emax: read-out: LXR beta actiivty at max dose (%). Summed up: (§1)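 TR-FRET coactivator recruitment; LBD + cpd, then fluorescein coactivator peptide/Tb anti-GST Ab mix; RT incubation; IP and Emax vs T0901317.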
A general note: TR-FRET usually uses a lanthanide donor and a delayed reading to cut background.

In experiment [2] the target is T2, GST tagged LXRalpha LBD (ligand binding domain) (Homo sapiens, UniProt Q13133).
T2 construct: purchased Invitrogen pv4655
T2 sequence (Q13133 209-447 limits assumed): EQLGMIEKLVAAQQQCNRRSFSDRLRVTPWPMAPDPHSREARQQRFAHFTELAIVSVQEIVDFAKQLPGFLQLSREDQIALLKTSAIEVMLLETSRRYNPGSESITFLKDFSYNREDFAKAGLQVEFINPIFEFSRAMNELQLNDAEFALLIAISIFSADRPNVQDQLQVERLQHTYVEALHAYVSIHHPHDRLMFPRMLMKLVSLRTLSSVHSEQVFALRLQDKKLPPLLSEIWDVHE
As to the kind of experiment: LanthaScreen TR-FRET Liver X Receptor Coactivator Assay, LXR alpha-LBD (co-activator recruitment; IP and % Emax relative to T0901317). The note with it: for LXR alpha IP (nM) / EC50: Inflection Point of co-activator recruitment, LXR alpha-LBD, TR-FRET; for Emax: read-out: LXR alpha actiivty at max dose (%). The class given is biochemical. Summed up:
as §1

Where [3] appears, read: efficacy at max dose in relation to reference T0901317, LXR beta-LBD.
Setting [4] is: efficacy at max dose in relation to reference T0901317, LXR alpha-LBD.

As for `CN(C)C(=O)c1ccc(N2CCC(CCCNC(=O)[C@@]3(c4ccccc4)CCCO3)CC2)nc1Cl` [Example 5-18, (S)-2-chloro-N,N-dimethyl-6-(4-(3-(2-phenyltetrahydrofuran-2-carboxamido)propyl)piperidin-1-yl)nicotinamide], the EC50 (in general, the concentration giving half of the maximal effect) in experiment [1] stood at 0.99 µM. For the same molecule, the results for the Emax in experiment [1] (setting [3]) and in experiment [2] (setting [4]) were 66% and 7%, respectively. Besides, the “LXR alpha IP (nM)” value in experiment [2] is given as “No IP”.
As to `CN(C)C(=O)c1ccc(N2CCC(CCCNC(=O)[C@]3(c4ccccc4)CCCO3)CC2)nc1Cl` [Example 5-19, (R)-2-chloro-N,N-dimethyl-6-(4-(3-(2-phenyltetrahydrofuran-2-carboxamido)propyl)piperidin-1-yl)nicotinamide], the half-maximal effective concentration (EC50) worked out at 0.16 µM in experiment [1] and 2.34 µM in experiment [2]. Moreover, the Emax in experiment [1] (setting [3]) was 104%; in experiment [2] (setting [4]), 36%.
Molecule `COc1cccc([C@@](O)(C(=O)NCCCC2CCN(c3ccc(C(=O)N(C)C)c(Cl)n3)CC2)C(F)(F)F)c1.O=C(O)C(F)(F)F` [Example 5-20, (R)-2-chloro-N,N-dimethyl-6-(4-(3-(3,3,3-trifluoro-2-hydroxy-2-(3-methoxyphenyl)propanamido)propyl)piperidin-1-yl)nicotinamide] registered a concentration for a half-maximal effect (EC50) in experiment [1] of 0.23 µM. The Emax in experiment [1] (setting [3]) was 69%; in experiment [2] (setting [4]), 17%. In addition, in experiment [2], the “LXR alpha IP (nM)” value is reported as “No IP”.
Take `CN(C)C(=O)c1ccc(N2CCC(CCCNC(=O)[C@@](O)(c3cccc(O)c3)C(F)(F)F)CC2)nc1Cl` [Example 5-21, (S)-2-chloro-N,N-dimethyl-6-(4-(3-(3,3,3-trifluoro-2-hydroxy-2-(3-hydroxyphenyl)propanamido)propyl)piperidin-1-yl)nicotinamide]: the 50% effective concentration (EC50) came out at 0.314 µM in experiment [1] and 8.72 µM in experiment [2]. The Emax amounted to 91% in experiment [1] (setting [3]) and 36% in experiment [2] (setting [4]).
As to `CN(C)C(=O)c1ccc(N2CCC(CCCNC(=O)[C@](O)(c3cccc(O)c3)C(F)(F)F)CC2)nc1Cl` [Example 5-22, (R)-2-chloro-N,N-dimethyl-6-(4-(3-(3,3,3-trifluoro-2-hydroxy-2-(3-hydroxyphenyl)propanamido)propyl)piperidin-1-yl)nicotinamide], the 50% effective concentration (EC50) was 1.19 µM in experiment [1] and 10.3 µM in experiment [2]. Also, the figures for the Emax in experiment [1] (setting [3]) and in experiment [2] (setting [4]) were 101% and 31%, respectively.
Turning to `COc1cccc([C@@](O)(C(=O)NCCCC2CCN(c3ccc(C(=O)N(C)C)c(Cl)n3)CC2)C(F)(F)F)c1` [Example 5-23, (R)-2-chloro-N,N-dimethyl-6-(4-(3-(3,3,3-trifluoro-2-hydroxy-2-(3-methoxyphenyl)propanamido)propyl)piperidin-1-yl) nicotinamide], a half-maximal effect in experiment [1] (EC50) was put at 0.275 µM. The “LXR beta actiivty at max dose (%)” value in experiment [1] (setting [3]) was 73%. In experiment [2], the “LXR alpha IP (nM)” value is reported as “No IP”. Moreover, the “LXR alpha actiivty at max dose (%)” value in experiment [2] (setting [4]) came to 16%.
As for `COc1cccc([C@@](O)(C(=O)N[C@@H](C)CCC2CCN(c3ccc(C(=O)N(C)C)c(Cl)n3)CC2)C(F)(F)F)c1` [Example 6-1, 2-chloro-N,N-dimethyl-6-(4-((S)-3-((R)-3,3,3-trifluoro-2-hydroxy-2-(3-methoxyphenyl)propanamido)butyl)piperidin-1-yl)nicotinamide], in experiment [1], a half-maximal effect (EC50) was put at 0.379 µM. Moreover, the Emax in experiment [1] (setting [3]) is 25%; in experiment [2] (setting [4]), 0%. Also, in experiment [2], the “LXR alpha IP (nM)” value was “No IP”.
On to `COc1cccc([C@@](O)(C(=O)N[C@H](C)CCC2CCN(c3ccc(C(=O)N(C)C)c(Cl)n3)CC2)C(F)(F)F)c1` [Example 6-2, 2-chloro-N,N-dimethyl-6-(4-((R)-3-((R)-3,3,3-trifluoro-2-hydroxy-2-(3-methoxyphenyl)propanamido)butyl)piperidin-1-yl)nicotinamide], for which the results for the EC50 in experiment [1] and in experiment [2] were 0.098 µM and 2.44 µM, respectively. The Emax in experiment [1] (setting [3]) stood at 116%; in experiment [2] (setting [4]), 29%.
Take `CN(C)C(=O)c1ccc(N2CCC3(CC2)CC3CCN(C)C(=O)[C@@](O)(c2ccccc2)C(F)(F)F)cc1Cl` (stereo partly drawn) [Example 7-1, 2-chloro-N,N-dimethyl-4-(1-(2-((S)-3,3,3-trifluoro-2-hydroxy-N-methyl-2-phenylpropanamido)ethyl)-6-azaspiro[2.5]octan-6-yl)benzamide]: the concentration for a half-maximal effect (EC50) amounted to 0.342 µM in experiment [1] and 4.09 µM in experiment [2]. For the same molecule, the results for the Emax in experiment [1] (setting [3]) and in experiment [2] (setting [4]) were 54% and 10%, respectively.
On the same counts, the results for `CN(C)C(=O)c1ccc(N2CCC3(CC2)CC3CCN(C)C(=O)[C@](O)(c2ccccc2)C(F)(F)F)cc1Cl` (stereo partly drawn) [Example 7-2, 2-chloro-N,N-dimethyl-4-(1-(2-((R)-3,3,3-trifluoro-2-hydroxy-N-methyl-2-phenylpropanamido)ethyl)-6-azaspiro[2.5]octan-6-yl)benzamide] are 0.014 µM, 0.534 µM, 73% and 44%.
For `CN(C)C(=O)c1ccc(N2CCC3(CC2)C[C@@H]3CCN(C)C(=O)[C@](O)(c2cccc(OC3CC3)c2)C(F)(F)F)cc1Cl` [Example 7-3, 2-chloro-4-((R)-1-(2-((R)-2-(3-cyclopropoxyphenyl)-3,3,3-trifluoro-2-hydroxy-N-methylpropanamido)ethyl)-6-azaspiro[2.5]octan-6-yl)-N,N-dimethylbenzamide], the concentration giving a half-maximal response (EC50) came out at 0.032 µM in experiment [1] and 0.601 µM in experiment [2]. In addition, the values for the Emax in experiment [1] (setting [3]) and in experiment [2] (setting [4]) were 61% and 24%, respectively.
Turning to `CN(C)C(=O)c1ccc(N2CCC3(CC2)C[C@@H]3CCN(C)C(=O)[C@](O)(c2ccccc2)C(F)(F)F)cc1Cl` [Example 7-5, 2-chloro-N,N-dimethyl-4-((R)-1-(2-((R)-3,3,3-trifluoro-2-hydroxy-N-methyl-2-phenylpropanamido)ethyl)-6-azaspiro[2.5]octan-6-yl)benzamide], the EC50 turned out to be 0.011 µM in experiment [1] and 0.381 µM in experiment [2]. Further, the Emax in experiment [1] (setting [3]) amounted to 68%; in experiment [2] (setting [4]) it was 55%.
Regarding `COc1cccc([C@@](O)(C(=O)N(C)CC[C@H]2CC23CCN(c2ccc(C(=O)N(C)C)c(Cl)c2)CC3)C(F)(F)F)c1` [Example 7-6, 2-chloro-N,N-dimethyl-4-((R)-1-(2-((R)-3,3,3-trifluoro-2-hydroxy-2-(3-methoxyphenyl)-N-methylpropanamido)ethyl)-6-azaspiro[2.5]octan-6-yl)benzamide], the EC50 turned out to be 0.021 µM in experiment [1] and 0.439 µM in experiment [2]. Further, the Emax in experiment [1] (setting [3]) was found to be 76%; in experiment [2] (setting [4]), 33%.
Consider `CNC(=O)c1ccc(N2CCC3(CC2)C[C@@H]3CCN(C)C(=O)[C@](O)(c2cccc(OC)c2)C(F)(F)F)cc1Cl` [Example 7-8, 2-chloro-N-methyl-4-((R)-1-(2-((R)-3,3,3-trifluoro-2-hydroxy-2-(3-methoxyphenyl)-N-methylpropanamido)ethyl)-6-azaspiro[2.5]octan-6-yl)benzamide], for which the results for the 50% effective concentration (EC50) in experiment [1] and in experiment [2] were 0.082 µM and 1.27 µM, respectively. Moreover, the Emax was found to be 56% in experiment [1] (setting [3]) and 33% in experiment [2] (setting [4]).
On the same counts, the results for `COc1cccc([C@@](O)(C(=O)N(C)CC[C@H]2CC23CCN(c2ccc(C(=O)NC4CC4)c(Cl)c2)CC3)C(F)(F)F)c1` [Example 7-9, 2-chloro-N-cyclopropyl-4-((R)-1-(2-((R)-3,3,3-trifluoro-2-hydroxy-2-(3-methoxyphenyl)-N-methylpropanamido)ethyl)-6-azaspiro[2.5]octan-6-yl)benzamide] are 0.109 µM, 0.775 µM, 52% and 25%.
